Measured values taken from PubChem BioAssay (NCI).
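Dose response: 5 concentrations. Exposure: 48 h. Format: 96-well plates. Endpoint: linear interpolation; highest concentration if not reached. GI50 marks 50% less growth. TGI: total growth inhibition.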

Tests used:
Test in all cases: NCI anticancer screen, dose series, 48 h
[1] = test system: 786-0 renal
[2] = test system: SK-MEL-2 melanoma
[3] = test system: HL-60(TB) leukemia
[4] = test system: CAKI-1 renal
[5] = test system: ACHN renal
[6] = test system: HCC-2998 colon
[7] = test system: UACC-257 melanoma
[8] = test system: TK-10 renal
[9] = test system: RXF 393 renal
[10] = test system: M14 melanoma
[11] = test system: KM12 colon
[12] = test system: IGROV1 ovarian
[13] = test system: OVCAR-4 ovarian
[14] = test system: U251 CNS
[15] = test system: EKVX NSCLC
[16] = test system: A498 renal

| SMILES | TGI [1] [µM] | TGI [2] [µM] | TGI [3] [µM] | TGI [4] [µM] | TGI [5] [µM] | TGI [6] [µM] | TGI [7] [µM] | TGI [8] [µM] | TGI [9] [µM] | TGI [10] [µM] | TGI [11] [µM] | TGI [12] [µM] | TGI [13] [µM] | TGI [14] [µM] | TGI [15] [µM] | TGI [16] [µM] | GI50 [9] [µM] |
| --- | --- | --- | --- | --- | --- | --- | --- | --- | --- | --- | --- | --- | --- | --- | --- | --- | --- |
| CNc1cccc(-c2cc(=O)c3cc4c(cc3[nH]2)OCO4)c1 | > 100 | > 44.5 | 2.89 | > 100 | > 100 | 1.38 | > 100 | 77.5 | > 100 | > 100 | > 24.7 | > 100 | > 100 | > 49.5 | – | – | – |
| Cc1ccc([N+](=O)[O-])cc1S(=O)(=O)Nc1ccc(C(=O)/C=C/c2ccccc2)cc1 | 33.1 | 38.2 | 65.1 | 55.4 | 28 | 32.1 | 34.6 | > 100 | 25 | 43.1 | 32.2 | 39.6 | 5.51 | – | 33.5 | – | – |
| COc1ccccc1NC(=S)NNC(=O)c1cc(-c2ccccc2)nc2ccccc12 | 32.8 | 31.2 | – | 39.5 | 65.8 | 28.6 | 57.8 | > 100 | 28.8 | 26.1 | 46.5 | 68.5 | 85.4 | 43.7 | – | – | – |
| Cc1ccc(NCCO)cc1 | > 100 | > 100 | > 100 | > 100 | > 100 | – | > 100 | > 100 | – | > 100 | > 100 | > 100 | > 100 | > 100 | > 100 | – | – |
| CN1CCC2(CC1)C(=O)N(NC(N)=O)C(=O)C2c1ccccc1 (centres undefined) | > 100 | > 100 | > 100 | > 100 | > 100 | > 100 | > 100 | > 100 | > 100 | > 100 | > 100 | > 100 | > 100 | > 100 | > 100 | – | – |
| Cc1ccc(C)n1-n1c(Cc2ccc(Cl)cc2)n[nH]c1=O | > 100 | > 100 | – | > 100 | > 100 | – | > 100 | > 100 | > 100 | > 100 | > 100 | > 100 | > 100 | > 100 | > 100 | > 100 | – |
| COc1ccc(-c2cc(=O)c3cc4c(cc3[nH]2)OCO4)c(OC)c1 | > 100 | > 100 | 46.3 | > 100 | > 100 | > 100 | – | > 100 | > 100 | > 100 | > 100 | > 100 | > 100 | > 100 | > 100 | – | 45.4 |
| COc1cc(S(=O)(=O)Nc2ccc(-c3csc(/N=C\c4ccccc4O)n3)cc2)ccc1Cl | > 100 | 78.5 | 98.6 | > 100 | > 100 | – | – | – | > 100 | > 100 | > 100 | > 100 | > 100 | – | > 100 | > 100 | – |
| CCOC(=O)c1ccc(N(C)Cc2cnc3nc(N)nc(N)c3n2)cc1 | > 100 | 80 | > 100 | 45 | 20.2 | – | > 100 | 35.4 | 33 | 97.2 | > 100 | 86 | – | > 100 | > 100 | 59.8 | – |
| CC1(C)OC[C@@H]([C@H](C=O)OCc2ccccc2)O1 | > 100 | > 100 | – | – | > 100 | – | > 100 | > 100 | – | > 100 | > 100 | > 100 | > 100 | > 100 | > 100 | > 100 | – |
| C=CC(C)(C)c1c(OC)oc2ccc(OC)c(C)c2c1=O | > 100 | > 100 | > 100 | > 100 | > 100 | > 100 | > 100 | > 100 | – | > 100 | > 100 | > 100 | – | > 100 | > 100 | > 100 | – |
| N#CC(NNC(=O)Cc1ccccc1)c1ccc(O)cc1 (centres undefined) | > 100 | > 100 | > 100 | > 100 | > 100 | – | > 100 | > 100 | > 100 | > 100 | > 100 | > 100 | > 100 | > 100 | – | – | – |
| COc1cc(C2SC(N)=Nc3c2c(C)nn3C(=O)Cc2ccccc2)cc(OC)c1OC (centres undefined) | > 100 | – | > 100 | > 100 | > 100 | > 100 | > 100 | > 100 | – | > 100 | > 100 | > 100 | – | – | > 100 | > 100 | – |
| O=C(CSc1nc(-c2ccccc2)c(-c2ccccc2)[nH]1)N/N=C/c1ccc([N+](=O)[O-])cc1 | 30.5 | 26.9 | 71.1 | – | 92.6 | – | 36 | 39.4 | – | 31.1 | 31.6 | 33.8 | 58.8 | 27.5 | – | 29.2 | – |
| CC(=O)OCc1cc(OC(C)=O)c2cc3c(OC(C)=O)cccc3c(OC(C)=O)c2c1 | 34.4 | – | 47.5 | – | 34.2 | 31.6 | 49.1 | 33 | – | 55.7 | – | 40.3 | 59.3 | 32 | 34.1 | 27.3 | – |
| COc1ccc(/C=C2\N=C(N3CCOCC3)NC2=O)cc1 | > 100 | > 100 | > 100 | > 100 | > 100 | > 100 | > 100 | > 100 | > 100 | > 100 | > 100 | > 100 | > 100 | > 100 | > 100 | – | – |
